Experiments:
Type in all cases: functional
Conditions in all cases: for CC50: read-out: LC50 (the source's name)
WiDr = experiment: Antiproliferative activity against human WiDr cells
SW1573 = experiment: Antiproliferative activity against human SW1573 cells
A2780 = experiment: Antiproliferative activity against human A2780 cells

SMILES | GI50 (WiDr) | GI50 (SW1573) | GI50 (A2780) | TGI (WiDr) | TGI (A2780) | TGI (SW1573) | CC50 (A2780) | CC50 (SW1573) | CC50 (WiDr)
C#CCCC1C=C(Cl)CCO1 (centres undefined) | > 100 µM | 41 µM | 37 µM |  |  |  |  |  | 
C[Si](C)(C)C1=C(Cl)C[C@H](Cc2ccccc2)O[C@@H]1C1CCCCC1 | 62 µM | 30 µM | 34 µM | 88 µM | 78 µM |  |  |  | 
C[Si](C)(C)C1=C(Cl)C[C@H](Cc2ccccc2)O[C@@H]1CCCCCCCCCC1C=C(Cl)CCO1 (some centres undefined) | 67 µM | 30 µM | 23 µM |  | 47 µM | 68 µM | 96 µM |  | 
C[C@@H]1O[C@H](C2CCCCC2)C([Si](C)(C)C)=C(Cl)[C@H]1C | 42 µM | 20 µM | 19 µM | 84 µM | 38 µM | 41 µM | 77 µM | 76 µM | 
C#CCC[C@H]1O[C@@H](C)[C@H](C)C(Cl)=C1[Si](C)(C)C | 24 µM | 19 µM | 21 µM | 68 µM | 39 µM | 37 µM | 75 µM | 75 µM | 85 µM
ClC1=CC(C2CCCCC2)OCC1 (centres undefined) | 100 µM | 26 µM | 20 µM |  |  |  |  |  | 
ClC1=CC(CCCCCCCCCCC2C=C(Cl)CCO2)OCC1 (centres undefined) | 20 µM | 14 µM | 8.6 µM | 61 µM | 25 µM | 36 µM | 65 µM | 85 µM | 89 µM
C[Si](C)(C)C1=C(Cl)C[C@H](C2CCCCC2)O[C@@H]1C1CCCCC1 | 30 µM | 23 µM | 22 µM | 81 µM | 46 µM | 48 µM | 90 µM | 88 µM | 97 µM
ClC1=CC(CCC=C(Br)Br)OCC1 (centres undefined) | 23 µM | 30 µM | 16 µM | 57 µM | 53 µM | 92 µM | 76 µM |  | 96 µM
CC(C)CC1OCCC(Cl)=C1[Si](C)(C)C (centres undefined) | 20 µM | 10 µM | 27 µM | 39 µM | 66 µM | 28 µM | 92 µM | 65 µM | 79 µM
CC[C@@H](C)[C@H]1O[C@@H](C)CC(Cl)=C1[Si](C)(C)C | > 100 µM | > 100 µM | > 100 µM |  |  |  |  |  | 
C[C@H]1CC(Cl)=C[C@@H](C2CCCCC2)O1 | 65 µM | 12 µM | 19 µM |  | 38 µM | 43 µM | 79 µM |  | 
CC[C@H]1CC(Cl)=C([Si](C)(C)C)[C@@H](C2CCCCC2)O1 | 29 µM | 22 µM | 16 µM | 73 µM | 35 µM | 49 µM | 75 µM | 91 µM | 95 µM
C[C@H]1CC(Cl)=C([Si](C)(C)C)[C@@H](C2CCCCC2)O1 | 15 µM | 16 µM | 17 µM | 33 µM | 32 µM | 31 µM | 61 µM | 62 µM | 74 µM
CC(C)CC1C=C(Cl)CCO1 (centres undefined) | > 100 µM | > 100 µM | > 100 µM |  |  |  |  |  | 
C[C@@H]1O[C@H](CCC=C(Br)Br)C([Si](C)(C)C)=C(Cl)[C@H]1C | 25 µM | 22 µM | 16 µM | 90 µM | 33 µM | 43 µM | 70 µM | 87 µM | 
C=CCC[C@H]1O[C@@H](C)[C@H](C)C(Cl)=C1[Si](C)(C)C | 37 µM | 23 µM | 17 µM |  | 36 µM | 55 µM | 19 µM | 92 µM | 
